Assay results as given in ChEMBL document CHEMBL1201862, “PubChem BioAssay data set” (2004).
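Five concentrations, 48 hours, 96-well plates. GI50 is the concentration that inhibits growth by half.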 Active and inactive are the calls of the source. Cut-off read from the data, not from the text of the source: active = GI50 up to about 1.1 µM and inactive = higher.

How the values were obtained:
Test in all cases: NCI-60 cell line screen, 48 h
NCI/ADR-RES = system: NCI/ADR-RES
SNB-75 = system: SNB-75
Malme-3M = system: Malme-3M
SK-OV-3 = system: SK-OV-3
U-251 = system: U-251
HOP-62 = system: HOP-62
K562 = system: K562
KM12 = system: KM12
HOP-92 = system: HOP-92
MCF7 = system: MCF7
PC-3 = system: PC-3
SF-539 = system: SF-539
HL-60 = system: HL-60
NCI-H23 = system: NCI-H23
HT-29 = system: HT-29
ACHN = system: ACHN
OVCAR-4 = system: OVCAR-4
HCT-116 = system: HCT-116
SK-MEL-2 = system: SK-MEL-2
RXF 393 = system: RXF 393
HCC 2998 = system: HCC 2998
A549 = system: A549
LOX IMVI = system: LOX IMVI
OVCAR-8 = system: OVCAR-8
RPMI-8226 = system: RPMI-8226
SF-295 = system: SF-295
A498 = system: A498
CAKI-1 = system: CAKI-1
NCI-H226 = system: NCI-H226
T47D = system: T47D
SR = system: SR
NCI-H522 = system: NCI-H522
OVCAR-3 = system: OVCAR-3
M14 = system: M14
MDA-MB-435 = system: MDA-MB-435
MDA-N = system: MDA-N
COLO 205 = system: COLO 205
UACC-257 = system: UACC-257
TK-10 = system: TK-10
OVCAR-5 = system: OVCAR-5
SF-268 = system: SF-268
BT-549 = system: BT-549
SW-620 = system: SW-620
CCRF-CEM = system: CCRF-CEM
HCT-15 = system: HCT-15
UO-31 = system: UO-31
NCI-H460 = system: NCI-H460
SNB-19 = system: SNB-19
SK-MEL-28 = system: SK-MEL-28
Hs-578T = system: Hs-578T
SN12C = system: SN12C
MOLT-4 = system: MOLT-4
786-0 = system: 786-0
EKVX = system: EKVX
MDA-MB-231 = system: MDA-MB-231
IGROV-1 = system: IGROV-1
DU-145 = system: DU-145
UACC-62 = system: UACC-62
SK-MEL-5 = system: SK-MEL-5

O=C1NC(NNc2ccccc2)=N/C1=C\c1ccccc1O
GI50 (NCI/ADR-RES): 29.6 µM (inactive)
GI50 (SNB-75): 43.4 µM (inactive)
GI50 (Malme-3M): > 100 µM (inactive)
GI50 (SK-OV-3): > 100 µM (inactive)
GI50 (U-251): 70.5 µM (inactive)
GI50 (HOP-62): 48.4 µM (inactive)
GI50 (K562): 50.2 µM (inactive)
GI50 (KM12): 33.2 µM (inactive)
GI50 (HOP-92): 55 µM (inactive)
GI50 (MCF7): 40.4 µM (inactive)
GI50 (PC-3): 33.6 µM (inactive)
GI50 (SF-539): 77.6 µM (inactive)
GI50 (HL-60): 28.8 µM (inactive)
GI50 (NCI-H23): 39.1 µM (inactive)
GI50 (HT-29): 61 µM (inactive)
GI50 (ACHN): 49.1 µM (inactive)
GI50 (OVCAR-4): 50.9 µM (inactive)
GI50 (HCT-116): 48.2 µM (inactive)
GI50 (SK-MEL-2): 75.2 µM (inactive)
GI50 (RXF 393): 40 µM (inactive)
GI50 (HCC 2998): 80.9 µM (inactive)
GI50 (A549): 72.6 µM (inactive)
GI50 (LOX IMVI): > 100 µM (inactive)
GI50 (OVCAR-8): > 100 µM (inactive)
GI50 (RPMI-8226): 81.5 µM (inactive)
GI50 (SF-295): 50.2 µM (inactive)
GI50 (A498): 45.9 µM (inactive)
GI50 (CAKI-1): 63.1 µM (inactive)
GI50 (NCI-H226): 86.1 µM (inactive)
GI50 (T47D): 34.1 µM (inactive)
GI50 (SR): > 100 µM (inactive)
GI50 (NCI-H522): 80.4 µM (inactive)
GI50 (OVCAR-3): 96.2 µM (inactive)
GI50 (M14): 97.1 µM (inactive)
GI50 (MDA-MB-435): 71.1 µM (inactive)
GI50 (MDA-N): 71.3 µM (inactive)
GI50 (COLO 205): > 100 µM (inactive)
GI50 (UACC-257): 40.9 µM (inactive)
GI50 (TK-10): 67.3 µM (inactive)
GI50 (OVCAR-5): > 100 µM (inactive)
GI50 (SF-268): > 100 µM (inactive)
GI50 (BT-549): 21 µM (inactive)
GI50 (SW-620): 58.1 µM (inactive)
GI50 (CCRF-CEM): 0.0183 µM (active)
GI50 (HCT-15): 44.2 µM
GI50 (UO-31): > 100 µM (inactive)
GI50 (NCI-H460): 45.6 µM (inactive)
GI50 (SNB-19): > 100 µM (inactive)
GI50 (SK-MEL-28): > 100 µM (inactive)
GI50 (Hs-578T): > 100 µM (inactive)
GI50 (SN12C): 73.6 µM (inactive)
GI50 (MOLT-4): 51.6 µM (inactive)
GI50 (786-0): 62.5 µM (inactive)
GI50 (EKVX): 66.8 µM (inactive)
GI50 (MDA-MB-231): 68.2 µM (inactive)
GI50 (IGROV-1): 89.1 µM (inactive)
GI50 (DU-145): 67 µM (inactive)
GI50 (UACC-62): 53.3 µM (inactive)

O=C(O)c1ccccc1-c1ccccc1C(=O)Nc1ccc2c(c1)Cc1cc(F)ccc1-2
GI50 (NCI/ADR-RES): 36.5 µM (inactive)
GI50 (SNB-75): 26.6 µM (inactive)
GI50 (Malme-3M): 33.7 µM (inactive)
GI50 (SK-OV-3): 31.3 µM (inactive)
GI50 (U-251): 21.3 µM (inactive)
GI50 (HOP-62): 24.9 µM (inactive)
GI50 (KM12): 24.5 µM (inactive)
GI50 (HOP-92): 37.9 µM (inactive)
GI50 (MCF7): 27.5 µM (inactive)
GI50 (PC-3): 26.4 µM (inactive)
GI50 (SF-539): 29.5 µM (inactive)
GI50 (NCI-H23): 17.9 µM (inactive)
GI50 (HT-29): 22.8 µM (inactive)
GI50 (ACHN): 21.2 µM (inactive)
GI50 (OVCAR-4): 25.9 µM (inactive)
GI50 (HCT-116): 16 µM (inactive)
GI50 (SK-MEL-2): 18.8 µM (inactive)
GI50 (RXF 393): 32.2 µM (inactive)
GI50 (HCC 2998): 16.3 µM (inactive)
GI50 (A549): 24.5 µM (inactive)
GI50 (LOX IMVI): 19.7 µM (inactive)
GI50 (OVCAR-8): 35.2 µM (inactive)
GI50 (RPMI-8226): 31.5 µM (inactive)
GI50 (SF-295): 26.4 µM (inactive)
GI50 (A498): 19 µM (inactive)
GI50 (CAKI-1): 30.4 µM (inactive)
GI50 (NCI-H226): 30.5 µM (inactive)
GI50 (T47D): 22.1 µM (inactive)
GI50 (SR): 18 µM (inactive)
GI50 (NCI-H522): 24.3 µM (inactive)
GI50 (OVCAR-3): 17.7 µM (inactive)
GI50 (M14): 19.7 µM (inactive)
GI50 (MDA-MB-435): 32.5 µM (inactive)
GI50 (MDA-N): 23.6 µM (inactive)
GI50 (COLO 205): 17.4 µM (inactive)
GI50 (UACC-257): 22.1 µM (inactive)
GI50 (TK-10): 28.9 µM (inactive)
GI50 (OVCAR-5): 30.8 µM (inactive)
GI50 (SF-268): 43.6 µM (inactive)
GI50 (BT-549): 18.9 µM (inactive)
GI50 (SW-620): 33.7 µM (inactive)
GI50 (HCT-15): 17.6 µM
GI50 (UO-31): 27.8 µM (inactive)
GI50 (NCI-H460): 26.6 µM (inactive)
GI50 (SNB-19): 36.4 µM (inactive)
GI50 (SK-MEL-28): 37.8 µM (inactive)
GI50 (Hs-578T): 54.8 µM (inactive)
GI50 (SN12C): 12.3 µM (inactive)
GI50 (SK-MEL-5): 19.5 µM (inactive)
GI50 (MOLT-4): 26.7 µM (inactive)
GI50 (786-0): 24.3 µM (inactive)
GI50 (EKVX): 27.1 µM (inactive)
GI50 (MDA-MB-231): 26.3 µM (inactive)
GI50 (IGROV-1): 34 µM (inactive)
GI50 (DU-145): 33.6 µM (inactive)
GI50 (UACC-62): 17.7 µM (inactive)
